Twelve compounds from ChEMBL document CHEMBL3232987, “Investigation of Ugi-4CC derived 1H-tetrazol-5-yl-(aryl) methyl piperazinyl-6-fluoro-4-oxo-1,4-dihydroquinoline-3-carboxylic acid: synthesis, biology and 3D-QSAR analysis” (Eur J Med Chem, 2014) can be followed below.

Values after ≈ are worked out from the molar mass of the structure shown.

In test [1] the test system is Staphylococcus aureus. The experiment in a line: Antibacterial activity against gentamicin-resistant Staphylococcus aureus ATCC 33592 by NCCLS two-fold dilution method. Type of test: functional.
Test [2] has as its system Staphylococcus aureus. The experiment in a line: Antibacterial activity against methicillin-resistant Staphylococcus aureus ATCC 700699 by NCCLS two-fold dilution method. Type of test: functional.
Test [3] has as its system Staphylococcus aureus. Nature of the test: Antibacterial activity against Staphylococcus aureus ATCC 25923 after 24 hrs by spectrophotometric analysis. Format: functional, organism-based. The note with it: Staphylococcus aureus, ATCC 25923, 24 h; for IC50: read-out: IC50.
Test [4] deals with Staphylococcus aureus. The experiment in a line: Antibacterial activity against Staphylococcus aureus ATCC 29213 after 24 hrs by spectrophotometric analysis. The note with it: Staphylococcus aureus, ATCC 29213, 24 h; for IC50: read-out: IC50. Format: functional, organism-based.
In test [5] the test system is Staphylococcus aureus. The experiment in a line: Antibacterial activity against Staphylococcus aureus ATCC 25923 by NCCLS two-fold dilution method. Type of test: functional. Conditions: for MIC: Staphylococcus aureus, ATCC 25923.
For test [6], the system named is Staphylococcus aureus. Nature of the test: Antibacterial activity against Staphylococcus aureus ATCC 29213 by NCCLS two-fold dilution method. Format: functional.
Test [7] has as its system Staphylococcus aureus. Nature of the test: Antibacterial activity against gentamicin-resistant Staphylococcus aureus ATCC 33592 after 24 hrs by spectrophotometric analysis. Format: functional, organism-based. The note with it: Staphylococcus aureus, ATCC 33592, 24 h; for IC50: read-out: IC50.
Test [8] concerns Staphylococcus aureus. The experiment in a line: Antibacterial activity against methicillin-resistant Staphylococcus aureus ATCC 700699 after 24 hrs by spectrophotometric analysis. Format: functional, organism-based. The note with it: Staphylococcus aureus, ATCC 700699, 24 h; for IC50: read-out: IC50.

For the compound `CCn1cc(C(=O)O)c(=O)c2cc(F)c(N3CCN(C(c4ccc(F)cc4)c4nnnn4C4CCCCC4)CC3)cc21` (stereo not given), the MIC is 50 µg/mL (≈ 86.6 µM) in test [1]; 50 µg/mL (≈ 86.6 µM) in test [2]; 2.1 µg/mL (≈ 3.64 µM) in test [3]; greater than 50 µg/mL in test [4]; 1.56 µg/mL (≈ 2.7 µM) in test [5]; 50 µg/mL (≈ 86.6 µM) in test [6]. The minimum inhibitory concentration (MIC) in test [7] and in test [8] was 50 µg/mL (≈ 86.6 µM) each time. The IC50 in test [3] was determined as 0.5 µg/mL (≈ 0.866 µM); in test [4] it was 50 µg/mL (≈ 86.6 µM); in test [7] it was 50 µg/mL (≈ 86.6 µM); in test [8], 50 µg/mL (≈ 86.6 µM). Moreover, the “-logMIC” value in test [5] is 5.568.

Consider `CC(C)(C)n1nnnc1C(c1ccco1)N1CCN(c2cc3c(cc2F)c(=O)c(C(=O)O)cn3Cc2ccc(C(F)(F)F)cc2)CC1` (stereo not given), for which the MIC in test [1] stood at 12.5 µg/mL (≈ 19.1 µM); in test [2] it was 50 µg/mL (≈ 76.5 µM); in test [3], 50 µg/mL (≈ 76.5 µM); in test [4], 50 µg/mL (≈ 76.5 µM); in test [5] it was 50 µg/mL (≈ 76.5 µM); in test [6] it was 25 µg/mL (≈ 38.2 µM). For the same compound, the MIC in test [7] and in test [8] was 50 µg/mL (≈ 76.5 µM) each time. Also, the IC50 in test [3], in test [4], in test [7] and in test [8] was 50 µg/mL (≈ 76.5 µM) throughout.

For `CCn1cc(C(=O)O)c(=O)c2cc(F)c(N3CCN(C(c4ccc(C(C)C)cc4)c4nnnn4C(C)(C)C)CC3)cc21` (stereo not given), the MIC in test [1] was greater than 50 µg/mL; in test [2], 50 µg/mL (≈ 86.9 µM); in test [3] it was 50 µg/mL (≈ 86.9 µM); in test [4], greater than 50 µg/mL; in test [5], 50 µg/mL (≈ 86.9 µM); in test [6] it was 50 µg/mL (≈ 86.9 µM). For the same compound, the MIC in test [7] and in test [8] was 50 µg/mL (≈ 86.9 µM) in each case. Moreover, the IC50 in test [3] was 50 µg/mL (≈ 86.9 µM); in test [4], 50 µg/mL (≈ 86.9 µM); in test [7], greater than 50 µg/mL; in test [8], 50 µg/mL (≈ 86.9 µM). For the same compound, in test [5], the “-logMIC” value stood at 4.06.

As for `CCn1cc(C(=O)O)c(=O)c2cc(F)c(N3CCN(C(c4ccc(OC)c5ccccc45)c4nnnn4C(C)(C)C)CC3)cc21` (stereo not given), the MIC in test [1] is 12.5 µg/mL (≈ 20.4 µM); in test [2], 12.5 µg/mL (≈ 20.4 µM); in test [3], 18 µg/mL (≈ 29.3 µM); in test [4], 50 µg/mL (≈ 81.5 µM); in test [5], 12.5 µg/mL (≈ 20.4 µM); in test [6] it was 25 µg/mL (≈ 40.7 µM). Moreover, the MIC in test [7] is 50 µg/mL (≈ 81.5 µM); in test [8], 6.9 µg/mL (≈ 11.2 µM). Moreover, the IC50 worked out at 7 µg/mL (≈ 11.4 µM) in test [3], 50 µg/mL (≈ 81.5 µM) in test [4], 50 µg/mL (≈ 81.5 µM) in test [7] and 7.5 µg/mL (≈ 12.2 µM) in test [8]. For the same compound, the “-logMIC” value in test [5] was 4.69.

Regarding `COc1ccc(C(c2nnnn2C(C)(C)C)N2CCN(c3cc4c(cc3F)c(=O)c(C(=O)O)cn4Cc3ccc(C(F)(F)F)cc3)CC2)c(OC)c1OC` (stereo not given), the MIC in test [1], in test [2], in test [3], in test [4], in test [5] and in test [6] was 50 µg/mL (≈ 66.3 µM) each time. For the same compound, the MIC in test [7] and in test [8] was 50 µg/mL (≈ 66.3 µM) in each case. Besides, the IC50 in test [3], in test [4], in test [7] and in test [8] was 50 µg/mL (≈ 66.3 µM) each time. For the same compound, the “-logMIC” value in test [5] is reported as 4.178.

In the case of `O=C(O)c1cn(Cc2ccc(C(F)(F)F)cc2)c2cc(N3CCN(C(c4cccc5ccccc45)c4nnnn4C4CCCCC4)CC3)c(F)cc2c1=O` (stereo not given), the minimum inhibitory concentration (MIC) was greater than 50 µg/mL in test [1]; greater than 50 µg/mL in test [2]; greater than 50 µg/mL in test [3]; greater than 50 µg/mL in test [4]; 50 µg/mL (≈ 67.6 µM) in test [5]; greater than 50 µg/mL in test [6]. Also, the MIC in test [7] and in test [8] was greater than 50 µg/mL each time. The IC50 is 50 µg/mL (≈ 67.6 µM) in test [3], greater than 50 µg/mL in test [4], greater than 50 µg/mL in test [7] and greater than 50 µg/mL in test [8]. Moreover, the “-logMIC” value in test [5] worked out at 4.169.

Turning to `O=C(O)c1cn(Cc2ccc(C(F)(F)F)cc2)c2cc(N3CCN(C(c4ccc(F)cc4)c4nnnn4C4CCCCC4)CC3)c(F)cc2c1=O` (stereo not given), the minimal inhibitory concentration (MIC) was greater than 50 µg/mL in test [1]; greater than 50 µg/mL in test [2]; 12.5 µg/mL (≈ 17.7 µM) in test [3]; greater than 50 µg/mL in test [4]; 12.5 µg/mL (≈ 17.7 µM) in test [5]; greater than 50 µg/mL in test [6]. Further, the MIC in test [7] and in test [8] was greater than 50 µg/mL throughout. Moreover, the IC50 was 5.2 µg/mL (≈ 7.35 µM) in test [3], greater than 50 µg/mL in test [4], greater than 50 µg/mL in test [7] and greater than 50 µg/mL in test [8]. Also, in test [5], the “-logMIC” value amounted to 4.752.

On to `O=C(O)c1cn(Cc2ccc(C(F)(F)F)cc2)c2cc(N3CCN(C(c4ccccc4)c4nnnn4C4CCCCC4)CC3)c(F)cc2c1=O` (stereo not given), for which the MIC in test [1] is 25 µg/mL (≈ 36.2 µM); in test [2] it was greater than 50 µg/mL; in test [3], 17.5 µg/mL (≈ 25.4 µM); in test [4], 4.4 µg/mL (≈ 6.38 µM); in test [5], 12.5 µg/mL (≈ 18.1 µM); in test [6], 6.25 µg/mL (≈ 9.06 µM). Besides, the MIC in test [7] was 40.5 µg/mL (≈ 58.7 µM); in test [8], greater than 50 µg/mL. The half-inhibitory concentration (IC50) in test [3] is 5.2 µg/mL (≈ 7.54 µM); in test [4], 2.2 µg/mL (≈ 3.19 µM); in test [7] it was 21 µg/mL (≈ 30.4 µM); in test [8] it was greater than 50 µg/mL. The “-logMIC” value in test [5] is recorded as 4.741.

In the case of `CCn1cc(C(=O)O)c(=O)c2cc(F)c(N3CCN(C(c4cccc5ccccc45)c4nnnn4C4CCCCC4)CC3)cc21` (stereo not given), the MIC in test [1] worked out at 3.12 µg/mL (≈ 5.12 µM); in test [2], 25 µg/mL (≈ 41 µM); in test [3] it was 1.4 µg/mL (≈ 2.3 µM); in test [4], 2.9 µg/mL (≈ 4.76 µM); in test [5], 3.12 µg/mL (≈ 5.12 µM); in test [6] it was 6.25 µg/mL (≈ 10.3 µM). The results for the MIC in test [7] and in test [8] were 4.2 µg/mL (≈ 6.89 µM) and 8.2 µg/mL (≈ 13.4 µM), respectively. Moreover, the IC50 in test [3] was 0.77 µg/mL (≈ 1.26 µM); in test [4] it was 1.6 µg/mL (≈ 2.62 µM); in test [7], 1.6 µg/mL (≈ 2.62 µM); in test [8] it was 3.7 µg/mL (≈ 6.07 µM). Further, in test [5], the “-logMIC” value is listed as 5.29.

Regarding `COc1ccc(C(c2nnnn2C(C)(C)C)N2CCN(c3cc4c(cc3F)c(=O)c(C(=O)O)cn4Cc3ccc(C(F)(F)F)cc3)CC2)c2ccccc12` (stereo not given), the MIC in test [1] was greater than 50 µg/mL; in test [2] it was greater than 50 µg/mL; in test [3], greater than 50 µg/mL; in test [4], greater than 50 µg/mL; in test [5] it was 50 µg/mL (≈ 67.2 µM); in test [6], greater than 50 µg/mL. The MIC in test [7] was greater than 50 µg/mL; in test [8], 50 µg/mL (≈ 67.2 µM). In addition, the 50% inhibitory concentration (IC50) is 50 µg/mL (≈ 67.2 µM) in test [3], greater than 50 µg/mL in test [4], greater than 50 µg/mL in test [7] and 50 µg/mL (≈ 67.2 µM) in test [8]. In addition, the “-logMIC” value in test [5] was found to be 4.172.

As for `CCn1cc(C(=O)O)c(=O)c2cc(F)c(N3CCN(C(c4ccc(OC)c5ccccc45)c4nnnn4C4CCCCC4)CC3)cc21` (stereo not given), the minimal inhibitory concentration (MIC) in test [1] was determined as 6.25 µg/mL (≈ 9.77 µM); in test [2], 25 µg/mL (≈ 39.1 µM); in test [3] it was 4.4 µg/mL (≈ 6.88 µM); in test [4] it was 6.9 µg/mL (≈ 10.8 µM); in test [5] it was 6.25 µg/mL (≈ 9.77 µM); in test [6], 12.5 µg/mL (≈ 19.5 µM). For the same compound, the MIC worked out at 4.7 µg/mL (≈ 7.35 µM) in test [7] and 9 µg/mL (≈ 14.1 µM) in test [8]. Moreover, the IC50 in test [3] was found to be 1.7 µg/mL (≈ 2.66 µM); in test [4] it was 3.6 µg/mL (≈ 5.63 µM); in test [7], 3.6 µg/mL (≈ 5.63 µM); in test [8], 4.06 µg/mL (≈ 6.35 µM). Moreover, the “-logMIC” value in test [5] amounted to 5.01.

As to `O=C(O)c1cn(Cc2ccc(C(F)(F)F)cc2)c2cc(N3CCN(C(c4ccncc4)c4nnnn4C4CCCCC4)CC3)c(F)cc2c1=O` (stereo not given), the MIC in test [1] was greater than 50 µg/mL; in test [2] it was 50 µg/mL (≈ 72.4 µM); in test [3], 50 µg/mL (≈ 72.4 µM); in test [4], 50 µg/mL (≈ 72.4 µM); in test [5], 50 µg/mL (≈ 72.4 µM); in test [6], 50 µg/mL (≈ 72.4 µM). Besides, the results for the MIC in test [7] and in test [8] were greater than 50 µg/mL and 50 µg/mL (≈ 72.4 µM), respectively. The IC50 in test [3] is greater than 50 µg/mL; in test [4], greater than 50 µg/mL; in test [7], 50 µg/mL (≈ 72.4 µM); in test [8], greater than 50 µg/mL. Moreover, in test [5], the “-logMIC” value worked out at 4.14.

Broadly, the MIC is the least concentration at which growth counts as inhibited. A high value points to weaker potency. Broadly, the IC50 is the point on the concentration scale where inhibition reaches its midpoint.
